Experimental data from PubChem BioAssay AID1963843 (Molecular Pharmacology Branch, DTP, NCI, 2024).

Tested on: 616215-338-R-J1-PDC complex spheroid viability
Assay: Anticancer human tumor 616215-338-R-J1-PDC patient-derived colon adenocarcinoma cell line growth inhibition [POLQ]
Details: for IC50: curve of first compound; for viability, T/C: stronger effect = lower value; active means viability on the fitted dose curve at most 10% of control; inactive means the rest
Summary of the method: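 Three-cell-type spheroids modelling solid tumor plus stroma served as the readout system; POL inhibitors were tested individually and in combination, concentration ranges set by clinical Cmax where known.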

[1] = second compound 0.0316 µM, first compound 0.0316 µM
[2] = second compound 0.0316 µM, first compound 0.1 µM
[3] = second compound 0.0316 µM, first compound 0.316 µM
[4] = second compound 0.0316 µM, first compound 1 µM
[5] = second compound 0.0316 µM, first compound 3.16 µM
[6] = second compound 0.0316 µM, first compound 10 µM
[7] = second compound 0.1 µM, first compound 0.0316 µM
[8] = second compound 0.1 µM, first compound 0.1 µM
[9] = second compound 0.1 µM, first compound 0.316 µM
[10] = second compound 0.1 µM, first compound 1 µM
[11] = second compound 0.1 µM, first compound 3.16 µM
[12] = second compound 0.1 µM, first compound 10 µM
[13] = second compound 0.316 µM, first compound 0.0316 µM
[14] = second compound 0.316 µM, first compound 0.1 µM
[15] = second compound 0.316 µM, first compound 0.316 µM
[16] = second compound 0.316 µM, first compound 1 µM
[17] = second compound 0.316 µM, first compound 3.16 µM
[18] = second compound 0.316 µM, first compound 10 µM
[19] = second compound 1 µM, first compound 0.0316 µM
[20] = second compound 1 µM, first compound 0.1 µM
[21] = second compound 1 µM, first compound 0.316 µM
[22] = second compound 1 µM, first compound 1 µM
[23] = second compound 1 µM, first compound 3.16 µM
[24] = second compound 1 µM, first compound 10 µM
[25] = second compound 3.16 µM, first compound 0.0316 µM
[26] = second compound 3.16 µM, first compound 0.1 µM
[27] = second compound 3.16 µM, first compound 0.316 µM
[28] = second compound 3.16 µM, first compound 1 µM
[29] = second compound 3.16 µM, first compound 3.16 µM
[30] = second compound 3.16 µM, first compound 10 µM
[31] = second compound 10 µM, first compound 0.0316 µM
[32] = second compound 10 µM, first compound 0.1 µM
[33] = second compound 10 µM, first compound 0.316 µM
[34] = second compound 10 µM, first compound 1 µM
[35] = second compound 10 µM, first compound 3.16 µM
[36] = second compound 10 µM, first compound 10 µM
[37] = second compound 0.0316 µM, first compound 0.00316 µM
[38] = second compound 0.0316 µM, first compound 0.01 µM
[39] = second compound 0.1 µM, first compound 0.00316 µM
[40] = second compound 0.1 µM, first compound 0.01 µM
[41] = second compound 0.316 µM, first compound 0.00316 µM
[42] = second compound 0.316 µM, first compound 0.01 µM
[43] = second compound 1 µM, first compound 0.00316 µM
[44] = second compound 1 µM, first compound 0.01 µM
[45] = second compound 3.16 µM, first compound 0.00316 µM
[46] = second compound 3.16 µM, first compound 0.01 µM
[47] = second compound 10 µM, first compound 0.00316 µM
[48] = second compound 10 µM, first compound 0.01 µM
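Further: spheroids exposed to compounds for one week before readout.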
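Wherever viability, T/C is given: percent viability relative to DMSO vehicle wells taken as 100%.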

CC1COCCN1c1cc(-c2ccnn2C)c2ccnc(-c3ccn[nH]3)c2n1 (stereo not drawn) + COC1C(OC(N)=O)C(O)C(Oc2ccc3c(O)c(NC(=O)c4ccc(O)c(CC=C(C)C)c4)c(=O)oc3c2C)OC1(C)C
0.635 µM: IC50 (second compound 10 µM)
0.608 µM: IC50 (second compound 0.1 µM)
inactive: viability, T/C [1] 102% | viability, T/C [2] 90.4% | viability, T/C [3] 70.4% | viability, T/C [4] 48.4% | viability, T/C [5] 31.5% | viability, T/C [6] 33% | viability, T/C [7] 96.4% | viability, T/C [8] 91.1% | viability, T/C [9] 60.8% | viability, T/C [10] 44% | viability, T/C [11] 30.5% | viability, T/C [12] 38.7% | viability, T/C [13] 99.6% | viability, T/C [14] 86.1% | viability, T/C [15] 59.3% | viability, T/C [16] 46.1% | viability, T/C [17] 29.7% | viability, T/C [18] 40.2% | viability, T/C [19] 103% | viability, T/C [20] 84.8% | viability, T/C [21] 58.9% | viability, T/C [22] 46.1% | viability, T/C [23] 29% | viability, T/C [24] 36.1% | viability, T/C [25] 96.1% | viability, T/C [26] 86.4% | viability, T/C [27] 68.6% | viability, T/C [28] 47.6% | viability, T/C [29] 28.7% | viability, T/C [30] 30.9% | viability, T/C [31] 96.8% | viability, T/C [32] 86.9% | viability, T/C [33] 57.3% | viability, T/C [34] 47.7% | viability, T/C [35] 29.1% | viability, T/C [36] 31%
0.862 µM: IC50 (second compound 0.0316 µM)
0.619 µM: IC50 (second compound 0.316 µM)
0.804 µM: IC50 (second compound 3.16 µM)
0.61 µM: IC50 (second compound 1 µM)

CC1COCCN1c1cc(C2(S(C)(=N)=O)CC2)nc(-c2ccnc3[nH]ccc23)n1 (stereo not drawn) + COC1C(OC(N)=O)C(O)C(Oc2ccc3c(O)c(NC(=O)c4ccc(O)c(CC=C(C)C)c4)c(=O)oc3c2C)OC1(C)C
inactive: viability, T/C [1] 93.8% | viability, T/C [2] 104% | viability, T/C [3] 100% | viability, T/C [4] 98.5% | viability, T/C [5] 98.5% | viability, T/C [6] 67.1% | viability, T/C [7] 98.2% | viability, T/C [8] 91.7% | viability, T/C [9] 101% | viability, T/C [10] 96.6% | viability, T/C [11] 92.3% | viability, T/C [12] 73.9% | viability, T/C [13] 97.7% | viability, T/C [14] 103% | viability, T/C [15] 105% | viability, T/C [16] 95.5% | viability, T/C [17] 97.2% | viability, T/C [18] 65.1% | viability, T/C [19] 99.3% | viability, T/C [20] 99.1% | viability, T/C [21] 108% | viability, T/C [22] 104% | viability, T/C [23] 94.2% | viability, T/C [24] 63.9% | viability, T/C [25] 107% | viability, T/C [26] 100% | viability, T/C [27] 108% | viability, T/C [28] 94% | viability, T/C [29] 94.5% | viability, T/C [30] 60.6% | viability, T/C [31] 96.8% | viability, T/C [32] 95.3% | viability, T/C [33] 100% | viability, T/C [34] 98.6% | viability, T/C [35] 98.7% | viability, T/C [36] 61.8%
> 10 µM: IC50 (second compound 0.0316 µM) | IC50 (second compound 0.1 µM) | IC50 (second compound 0.316 µM) | IC50 (second compound 1 µM) | IC50 (second compound 3.16 µM) | IC50 (second compound 10 µM)

COc1cccc(OCCCN)c1-c1cc(Nc2cnc(C#N)cn2)n[nH]1 + COC1C(OC(N)=O)C(O)C(Oc2ccc3c(O)c(NC(=O)c4ccc(O)c(CC=C(C)C)c4)c(=O)oc3c2C)OC1(C)C
inactive: viability, T/C [37] 95.7% | viability, T/C [38] 109% | viability, T/C [1] 94.8% | viability, T/C [2] 76.1% | viability, T/C [3] 69.3% | viability, T/C [4] 61% | viability, T/C [39] 98.6% | viability, T/C [40] 99.3% | viability, T/C [7] 97.8% | viability, T/C [8] 78.8% | viability, T/C [9] 65.1% | viability, T/C [10] 51.7% | viability, T/C [41] 100% | viability, T/C [42] 106% | viability, T/C [13] 85.7% | viability, T/C [14] 87.4% | viability, T/C [15] 68% | viability, T/C [16] 53.5% | viability, T/C [43] 103% | viability, T/C [44] 101% | viability, T/C [19] 89.2% | viability, T/C [20] 75.3% | viability, T/C [21] 67.2% | viability, T/C [22] 54.2% | viability, T/C [45] 98.8% | viability, T/C [46] 95.3% | viability, T/C [25] 86.3% | viability, T/C [26] 74.2% | viability, T/C [27] 63.3% | viability, T/C [28] 55.2% | viability, T/C [47] 95.7% | viability, T/C [48] 97% | viability, T/C [31] 88.1% | viability, T/C [32] 79.8% | viability, T/C [33] 64.4% | viability, T/C [34] 47.9%
0.866 µM: IC50 (second compound 10 µM)
> 1 µM: IC50 (second compound 0.0316 µM) | IC50 (second compound 0.1 µM) | IC50 (second compound 0.316 µM) | IC50 (second compound 1 µM) | IC50 (second compound 3.16 µM)

Cn1ncnc1[C@H]1c2n[nH]c(=O)c3cc(F)cc(c23)N[C@@H]1c1ccc(F)cc1 + COC1C(OC(N)=O)C(O)C(Oc2ccc3c(O)c(NC(=O)c4ccc(O)c(CC=C(C)C)c4)c(=O)oc3c2C)OC1(C)C
> 0.1 µM: IC50 (second compound 0.0316 µM) | IC50 (second compound 0.1 µM) | IC50 (second compound 0.316 µM) | IC50 (second compound 1 µM) | IC50 (second compound 3.16 µM) | IC50 (second compound 10 µM)
inactive: viability, T/C (second compound 0.0316 µM, first compound 0.000316 µM) 103% | viability, T/C (second compound 0.0316 µM, first compound 0.001 µM) 107% | viability, T/C [37] 105% | viability, T/C [38] 107% | viability, T/C [1] 102% | viability, T/C [2] 102% | viability, T/C (second compound 0.1 µM, first compound 0.000316 µM) 97.2% | viability, T/C (second compound 0.1 µM, first compound 0.001 µM) 90.8% | viability, T/C [39] 102% | viability, T/C [40] 103% | viability, T/C [7] 101% | viability, T/C [8] 109% | viability, T/C (second compound 0.316 µM, first compound 0.000316 µM) 95.5% | viability, T/C (second compound 0.316 µM, first compound 0.001 µM) 106% | viability, T/C [41] 98.9% | viability, T/C [42] 104% | viability, T/C [13] 109% | viability, T/C [14] 95.9% | viability, T/C (second compound 1 µM, first compound 0.000316 µM) 106% | viability, T/C (second compound 1 µM, first compound 0.001 µM) 95.7% | viability, T/C [43] 108% | viability, T/C [44] 105% | viability, T/C [19] 107% | viability, T/C [20] 104% | viability, T/C (second compound 3.16 µM, first compound 0.000316 µM) 109% | viability, T/C (second compound 3.16 µM, first compound 0.001 µM) 98.5% | viability, T/C [45] 102% | viability, T/C [46] 101% | viability, T/C [25] 102% | viability, T/C [26] 105% | viability, T/C (second compound 10 µM, first compound 0.000316 µM) 105% | viability, T/C (second compound 10 µM, first compound 0.001 µM) 101% | viability, T/C [47] 103% | viability, T/C [48] 117% | viability, T/C [31] 105% | viability, T/C [32] 97.1%
